According to US10323022B2, “Pyrrolidinyl urea, pyrrolidinyl thiourea and pyrrolidinyl guanidine compounds as TrkA kinase inhibitors” (Array BioPharma Inc., priority 2011, dated 2019):

Target: TrkA (Homo sapiens (Human), UniProt P04629)
Experiment: TrkA Omnia Assay
Type: biochemical
Settings: averaged IC50; 20 nM enzyme, 500 μM ATP, 10 μM peptide substrate
Outline: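 Continuous fluorescent kinase read-out (ex 360 nm, em 485 nm) over 70 min, with initial rates fitted to 4- or 5-parameter logistic curves for IC50. Final conditions: 500 μM ATP, 10 μM Omnia Tyr Peptide #4, 20 nM TrkA, MOPS pH 7.5 buffer with MgCl2 and Triton X-100; enzyme and compound preincubated 10 min at ambient temperature.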

Chain of TrkA (P04629 33-796): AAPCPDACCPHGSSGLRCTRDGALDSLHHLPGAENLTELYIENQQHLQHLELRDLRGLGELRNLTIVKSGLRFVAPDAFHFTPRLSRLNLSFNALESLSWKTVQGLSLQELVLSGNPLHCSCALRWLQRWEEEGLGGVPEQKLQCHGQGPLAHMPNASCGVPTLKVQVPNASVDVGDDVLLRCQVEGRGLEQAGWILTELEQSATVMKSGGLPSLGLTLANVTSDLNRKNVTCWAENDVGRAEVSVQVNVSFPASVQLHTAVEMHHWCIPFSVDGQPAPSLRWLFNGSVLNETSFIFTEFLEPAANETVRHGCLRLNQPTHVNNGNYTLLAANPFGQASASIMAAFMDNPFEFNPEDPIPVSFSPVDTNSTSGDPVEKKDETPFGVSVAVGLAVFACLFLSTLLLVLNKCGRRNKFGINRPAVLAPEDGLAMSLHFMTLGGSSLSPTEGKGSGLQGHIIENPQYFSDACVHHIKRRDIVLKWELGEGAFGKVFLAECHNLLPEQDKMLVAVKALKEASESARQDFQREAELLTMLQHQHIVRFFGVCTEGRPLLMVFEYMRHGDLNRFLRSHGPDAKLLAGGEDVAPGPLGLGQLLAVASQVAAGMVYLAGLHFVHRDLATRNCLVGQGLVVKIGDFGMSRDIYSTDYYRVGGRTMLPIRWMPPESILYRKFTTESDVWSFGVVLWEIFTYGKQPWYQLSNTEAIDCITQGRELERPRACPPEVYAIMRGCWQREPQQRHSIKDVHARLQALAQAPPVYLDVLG

How did the IC50 turn out when COCCN1C[C@@H](NC(=O)Nc2c(C)c(-c3cnn(C)n3)nn2-c2ccccc2)[C@H](c2ccc(F)c(F)c2)C1 [Example 351, 1-((3S,4R)-4-(3,4-difluorophenyl)-1-(2-methoxyethyl)pyrrolidin-3-yl)-3-(4-methyl-3-(2-methyl-2H-1,2,3-triazol-4-yl)-1-phenyl-1H-pyrazol-5-yl)urea] was run?
Its IC50 is under 100 nM.

Which IC50 does the source give for COCCN1C[C@@H](NC(=O)Nc2c(C)c(Br)nn2-c2ccccc2)[C@H](c2ccc(F)c(F)c2)C1 [Example 352, 1-(3-bromo-4-methyl-1-phenyl-1H-pyrazol-5-yl)-3-((3S,4R)-4-(3,4-difluorophenyl)-1-(2-methoxyethyl)pyrrolidin-3-yl)urea] here?
Its IC50 is under 100 nM.

Which IC50 does the source give for COCCN1C[C@@H](NC(=O)Nc2c3c(nn2-c2ccccc2)C(=O)N(C)C3)[C@H](c2ccc(F)c(F)c2)C1 [Example 353, 1-((3S,4R)-4-(3,4-difluorophenyl)-1-(2-methoxyethyl)pyrrolidin-3-yl)-3-(5-methyl-6-oxo-2-phenyl-2,4,5,6-tetrahydropyrrolo[3,4-c]pyrazol-3-yl)urea] here?
Its IC50 is 100 to 1000 nM.

For COCCN1C[C@@H](NC(=O)Nc2c(C)c(OCc3nnc(C)o3)nn2-c2ccccc2)[C@H](c2ccc(F)c(F)c2)C1 [Example 355, 1-((3S,4R)-4-(3,4-difluorophenyl)-1-(2-methoxyethyl)pyrrolidin-3-yl)-3-(4-methyl-3-((5-methyl-1,3,4-oxadiazol-2-yl)methoxy)-1-phenyl-1H-pyrazol-5-yl)urea], which IC50 is on record?
Its IC50 is under 100 nM.

With CCOc1nn(-c2ccccc2)c(NC(=O)N[C@@H]2CN(CCOC)C[C@H]2c2ccc(F)c(F)c2)c1Cl [Example 356, 1-(4-chloro-3-ethoxy-1-phenyl-1H-pyrazol-5-yl)-3-((3S,4R)-4-(3,4-difluorophenyl)-1-(2-methoxyethyl)pyrrolidin-3-yl)urea] as the compound, how does the IC50 read?
The IC50 was under 100 nM.

How did the IC50 turn out when CCOc1nn(-c2ccccc2)c(NC(=O)N[C@@H]2CN(CCOC)C[C@H]2c2ccc(F)c(F)c2)c1F [Example 357, 1-((3S,4R)-4-(3,4-difluorophenyl)-1-(2-methoxyethyl)pyrrolidin-3-yl)-3-(3-ethoxy-4-fluoro-1-phenyl-1H-pyrazol-5-yl)urea] was run?
Its IC50 is under 100 nM.

COCCN1C[C@@H](NC(=O)Nc2c(Br)c(OCC(C)(C)O)nn2-c2ccccc2)[C@H](c2ccc(F)c(F)c2)C1 [Example 358, 1-(4-bromo-3-(2-hydroxy-2-methylpropoxy)-1-phenyl-1H-pyrazol-5-yl)-3-((3S,4R)-4-(3,4-difluorophenyl)-1-(2-methoxyethyl)pyrrolidin-3-yl)urea] was tested. Which IC50 did it give?
The IC50 was under 100 nM.

With COCCN1C[C@@H](NC(=O)Nc2c(Cl)c(OCC(C)(C)O)nn2-c2ccccc2)[C@H](c2ccc(F)c(F)c2)C1 [Example 359, 1-(4-chloro-3-(2-hydroxy-2-methylpropoxy)-1-phenyl-1H-pyrazol-5-yl)-3-((3S,4R)-4-(3,4-difluorophenyl)-1-(2-methoxyethyl)pyrrolidin-3-yl)urea] as the compound, how does the IC50 read?
Its IC50 is under 100 nM.

With CC[C@H](O)COc1nn(-c2ccccc2)c(NC(=O)N[C@@H]2CN(CCOC)C[C@H]2c2ccc(F)c(F)c2)c1C [Example 360, 1-((3S,4R)-4-(3,4-difluorophenyl)-1-(2-methoxyethyl)pyrrolidin-3-yl)-3-(3-((S)-2-hydroxybutoxy)-4-methyl-1-phenyl-1H-pyrazol-5-yl)urea] as the compound, how does the IC50 read?
Its IC50 is under 100 nM.

CCOC(=O)COc1nn(-c2ccccc2)c(NC(=O)N[C@@H]2CN(CCOC)C[C@H]2c2ccc(F)c(F)c2)c1C [Example 361, ethyl 2-((5-(3-((3S,4R)-4-(3,4-difluorophenyl)-1-(2-methoxyethyl)pyrrolidin-3-yl)ureido)-4-methyl-1-phenyl-1H-pyrazol-3-yl)oxy)acetate] was tested. Which IC50 did it give?
Its IC50 is under 100 nM.

How did the IC50 turn out when COCCN1C[C@@H](NC(=O)Nc2c(C)c(OCC(C)(C)O)nn2-c2ccccc2)[C@H](c2ccc(F)cc2)C1 [Example 362, 1-((3S,4R)-4-(4-fluorophenyl)-1-(2-methoxyethyl)pyrrolidin-3-yl)-3-(3-(2-hydroxy-2-methylpropoxy)-4-methyl-1-phenyl-1H-pyrazol-5-yl)urea] was run?
The IC50 was under 100 nM.

How did the IC50 turn out when COCCN1C[C@@H](NC(=O)Nc2c(C)c(OC[C@@H](C)O)nn2-c2ccccc2)[C@H](c2ccc(F)cc2)C1 [Example 364, 1-((3S,4R)-4-(4-fluorophenyl)-1-(2-methoxyethyl)pyrrolidin-3-yl)-3-(3-((R)-2-hydroxypropoxy)-4-methyl-1-phenyl-1H-pyrazol-5-yl)urea] was run?
Its IC50 is under 100 nM.

COCCN1C[C@@H](NC(=O)Nc2c(C)c(OC[C@@H](C)O)nn2-c2ccccc2)[C@H](c2ccc(F)c(F)c2)C1 [Example 365, 1-((3S,4R)-4-(3,4-difluorophenyl)-1-(2-methoxyethyl)pyrrolidin-3-yl)-3-(3-((R)-2-hydroxypropoxy)-4-methyl-1-phenyl-1H-pyrazol-5-yl)urea] was tested. Which IC50 did it give?
The IC50 was under 100 nM.

Which IC50 does the source give for COCCN1C[C@@H](NC(=O)Nc2c(C)c(OC[C@@H](C)O)nn2-c2ccccc2)[C@H](c2cc(F)cc(F)c2)C1 [Example 366, 1-((3S,4R)-4-(3,5-difluorophenyl)-1-(2-methoxyethyl)pyrrolidin-3-yl)-3-(3-((R)-2-hydroxypropoxy)-4-methyl-1-phenyl-1H-pyrazol-5-yl)urea] here?
The IC50 was under 100 nM.

How did the IC50 turn out when COCCN1C[C@@H](NC(=O)Nc2c(C)c(OC[C@@H](O)C(F)(F)F)nn2-c2ccccc2)[C@H](c2cc(F)cc(F)c2)C1 [Example 367, 1-((3S,4R)-4-(3,5-difluorophenyl)-1-(2-methoxyethyl)pyrrolidin-3-yl)-3-(4-methyl-1-phenyl-3-((R)-3,3,3-trifluoro-2-hydroxypropoxy)-1H-pyrazol-5-yl)urea] was run?
Its IC50 is under 100 nM.

With COCCN1C[C@@H](NC(=O)Nc2c(C)c(OC[C@H](C)O)nn2-c2ccccc2)[C@H](c2ccc(F)cc2)C1 [Example 368, 1-((3S,4R)-4-(4-fluorophenyl)-1-(2-methoxyethyl)pyrrolidin-3-yl)-3-(3-((S)-2-hydroxypropoxy)-4-methyl-1-phenyl-1H-pyrazol-5-yl)urea] as the compound, how does the IC50 read?
The IC50 was under 100 nM.

With COCCN1C[C@@H](NC(=O)Nc2c(C)c(OC[C@H](O)C(F)(F)F)nn2-c2ccccc2)[C@H](c2cc(F)cc(F)c2)C1 [Example 369, 1-((3S,4R)-4-(3,5-difluorophenyl)-1-(2-methoxyethyl)pyrrolidin-3-yl)-3-(4-methyl-1-phenyl-3-((S)-3,3,3-trifluoro-2-hydroxypropoxy)-1H-pyrazol-5-yl)urea] as the compound, how does the IC50 read?
Its IC50 is under 100 nM.

Which IC50 does the source give for COCCN1C[C@@H](NC(=O)Nc2c(Cl)c(OCC(C)(C)O)nn2-c2ccccc2)[C@H](c2cc(F)cc(F)c2)C1 [Example 370, 1-(4-chloro-3-(2-hydroxy-2-methylpropoxy)-1-phenyl-1H-pyrazol-5-yl)-3-((3S,4R)-4-(3,5-difluorophenyl)-1-(2-methoxyethyl)pyrrolidin-3-yl)urea] here?
Its IC50 is under 100 nM.

For COCCN1C[C@@H](NC(=O)Nc2c(Cl)c(OCC(C)(C)O)nn2-c2ccccc2)[C@H](c2ccc(F)cc2)C1 [Example 371, 1-(4-chloro-3-(2-hydroxy-2-methylpropoxy)-1-phenyl-1H-pyrazol-5-yl)-3-((3S,4R)-4-(4-fluorophenyl)-1-(2-methoxyethyl)pyrrolidin-3-yl)urea], which IC50 is on record?
Its IC50 is under 100 nM.

COCCN1C[C@@H](NC(=O)Nc2c(Cl)c(OC[C@@H](C)O)nn2-c2ccccc2)[C@H](c2ccc(F)c(F)c2)C1 [Example 372, 1-(4-chloro-3-((R)-2-hydroxypropoxy)-1-phenyl-1H-pyrazol-5-yl)-3-((3S,4R)-4-(3,4-difluorophenyl)-1-(2-methoxyethyl)pyrrolidin-3-yl)urea] was tested. Which IC50 did it give?
Its IC50 is under 100 nM.
